Results from US20260176320A1, “MODULATORS OF G-PROTEIN COUPLED RECEPTORS” (priority 2018, published 2026).
Like-named read-outs stand apart in the source and are kept apart here.

Assays:
Format in all cases: cell-based
GLP-1R [1] = molecular target: T1, GLP-1R (Homo sapiens, UniProt P43220); assay: HitHunter cAMP assay (GLP-1R); settings: cAMP; for Emax: read-out: (Emax) GLP-1R
Method in brief: (§1)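 Luminescent readout of cAMP by enzyme-fragment immunocompetition gave agonist concentration-response data. Cells (10,000/well) sat in HBSS buffer containing IBMX 625 μM, HEPES 10 mM and BSA 0.2%, exposed to agonist for 30 min at room temperature.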

GLP-1R [2] = molecular target: T1, GLP-1R; assay: PathHunter β-arrestin assay
Protocol: The effects of the chemical entities described herein on β-arrestin signaling and associated downstream processes (e.g., those delineated above) can be assessed using conventional methods, e.g., PathHunter β-arrestin Assay for determining β-arresting coupling (see Examples section). […] It has been shown that b-arrestin coupling is a key strep in receptor internalization and subsequent de-sensitization and attenuation of signaling.
5,000 cells were seeded in appropriate cell culture media per well in a low volume 384-well tissue culture plate. The assay plate was incubated with cells overnight at 37° C. and 5% CO2. The media was removed, and 5 μL of appropriate cell culture media containing 0.2% BSA was added. Agonist serial dilutions in a separate 384 well dilution plate in a 22-point series of 2× dilutions of agonist in DMSO were performed as follows. 80 μL of the highest concentration of Agonist/DMSO was added to well No. 1. 40 μL was removed from well No. 1, and added to well No. 2, followed by gentle mixing. […] This process was repeated until well No. 22. Additional serial dilutions for additional agonists were set up in a similar manner. 100 nL of each 2× agonist serial dilution was added in duplicate to the designated agonist rows of the assay plate using the Labcyte ECHO. Assay plate was incubated for 90 minutes at 37° C. and 5% CO2. A stock of Working Detection Solution in a separate 15 ml polypropylene tube was prepared by mixing 19 parts of Cell Assay Buffer, 5 parts of Substrate Reagent 1, 1 part Substrate Reagent 2. […] Plates were spun down briefly. Assay plate was incubated for 3 hour at room temperature in the dark for the immunocompetition reaction to occur. Samples were read on Tecan i-control plate reader using luminescence mode with 100 ms integration time. Data analysis was performed using GraphPad Prism.

GIP-R = molecular target: T2, GIP-R (Homo sapiens, UniProt P48546); assay: HitHunter cAMP assay (GIP-R); settings: cAMP; for Emax: read-out: (Emax) GIP-R
T2 sequence (P48546 22-466): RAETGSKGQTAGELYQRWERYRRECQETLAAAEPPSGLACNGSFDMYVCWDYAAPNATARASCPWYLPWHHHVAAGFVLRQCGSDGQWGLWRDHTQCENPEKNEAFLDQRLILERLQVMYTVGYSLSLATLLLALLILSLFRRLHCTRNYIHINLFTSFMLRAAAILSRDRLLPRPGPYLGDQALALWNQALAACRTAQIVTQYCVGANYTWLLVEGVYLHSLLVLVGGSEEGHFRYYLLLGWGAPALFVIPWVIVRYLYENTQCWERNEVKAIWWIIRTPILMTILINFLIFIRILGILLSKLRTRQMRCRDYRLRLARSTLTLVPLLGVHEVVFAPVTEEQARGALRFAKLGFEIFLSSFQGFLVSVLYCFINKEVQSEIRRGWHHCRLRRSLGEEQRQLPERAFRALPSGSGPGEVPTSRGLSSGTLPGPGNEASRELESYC
Method in brief: as §1

[3] = Table 3, read-out: EC50 GLP-1R/nM
[4] = Table 3A, read-out: EC50 GLP-1R/nM
[5] = PathHunter β-arrestin assay, read-out: β-arrestin activity EC50
[6] = Table 3, read-out: EC50 GIP-R/nM
[7] = Table 3A, read-out: EC50 GIP-R/nM

T1 sequence (P43220 24-463): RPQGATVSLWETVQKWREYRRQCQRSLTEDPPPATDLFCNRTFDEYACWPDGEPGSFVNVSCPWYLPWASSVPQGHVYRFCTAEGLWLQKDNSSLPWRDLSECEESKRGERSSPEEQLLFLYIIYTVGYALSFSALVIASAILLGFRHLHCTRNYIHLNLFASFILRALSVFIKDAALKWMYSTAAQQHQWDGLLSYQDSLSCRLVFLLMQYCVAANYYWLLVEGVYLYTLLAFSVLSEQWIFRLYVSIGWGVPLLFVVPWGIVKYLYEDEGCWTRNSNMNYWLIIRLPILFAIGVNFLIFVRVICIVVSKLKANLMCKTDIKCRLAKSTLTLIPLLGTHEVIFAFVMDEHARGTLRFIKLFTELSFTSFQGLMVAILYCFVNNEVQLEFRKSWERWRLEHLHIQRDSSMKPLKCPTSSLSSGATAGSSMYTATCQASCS

| Compound | Emax (GLP-1R [1]; Table 3) [%] | EC50 (GLP-1R [1]; [3]) [nM] | Emax (GLP-1R [1]; Table 3A) [%] | EC50 (GLP-1R [1]; [4]) [nM] | EC50 (GLP-1R [2]; [5]) [nM] | Emax (GIP-R; Table 3) [%] | EC50 (GIP-R; [6]) [nM] | Emax (GIP-R; Table 3A) [%] | EC50 (GIP-R; [7]) [nM] | EC50 (GLP-1R [1]; EC50 GLP-1R/nM, Table 3) [nM] | EC50 (GLP-1R [1]; EC50 GLP-1R/nM, Table 3A) [nM] | EC50 (GLP-1R [2]) [nM] | EC50 (GIP-R; EC50 GIP-R/nM, Table 3) [nM] | EC50 (GIP-R; EC50 GIP-R/nM, Table 3A) [nM] |
| --- | --- | --- | --- | --- | --- | --- | --- | --- | --- | --- | --- | --- | --- | --- |
| CCCCCCCCCCCCCCCC(=O)N[C@@H](CCC(=O)NCCCC[C@H](NC(=O)[C@H](CO)NC(=O)[C@@H]1CCCN1C(=O)[C@@H]1CCCN1C(=O)[C@@H]1CCCN1C(=O)[C@H](C)NC(=O)CNC(=O)[C@H](CO)NC(=O)[C@H](CO)NC(=O)[C@@H]1CCCN1C(=O)CNC(=O)CNC(=O)[C@H](C)NC(=O)[C@H](CC(C)C)NC(=O)[C@H](CC(C)C)NC(=O)[C@H](Cc1c[nH]c2ccccc12)NC(=O)[C@H](CC(N)=O)NC(=O)[C@@H](NC(=O)[C@H](Cc1ccccc1)NC(=O)[C@H](CCC(=O)O)NC(=O)C(C)(C)NC(=O)[C@H](C)NC(=O)[C@H](C)NC(=O)[C@H](CCC(N)=O)NC(=O)[C@H](CCCCN)NC(=O)[C@H](CC(=O)O)NC(=O)[C@H](CC(C)C)NC(=O)[C@H](Cc1ccc(O)cc1)NC(=O)[C@@H](NC(=O)[C@H](CO)NC(=O)[C@H](Cc1ccc(O)cc1)NC(=O)[C@H](CC(=O)O)NC(=O)[C@H](CO)NC(=O)[C@@H](NC(=O)[C@H](Cc1ccccc1)NC(=O)[C@@H](NC(=O)CNC(=O)[C@H](CCC(=O)O)NC(=O)CSCC(=O)NCCN1CC(=O)N(C)CC1=O)[C@@H](C)O)[C@@H](C)O)[C@@H](C)CC)C(C)C)C(N)=O)C(=O)O [Compound 12] | 91 | 1 to 10 | 91 | 1 to 10 | > 1000 | 85 | 0.1 to 1 | 85 | 0.1 to 1 |  |  |  |  |  |
| CCCCCCCCCCCCCCCC(=O)N[C@@H](CCC(=O)NCCCC[C@H](NC(=O)[C@H](CO)NC(=O)[C@@H]1CCCN1C(=O)[C@@H]1CCCN1C(=O)[C@@H]1CCCN1C(=O)[C@H](C)NC(=O)CNC(=O)[C@H](CO)NC(=O)[C@H](CO)NC(=O)[C@@H]1CCCN1C(=O)CNC(=O)CNC(=O)[C@H](C)NC(=O)[C@H](CC(C)C)NC(=O)[C@H](CC(C)C)NC(=O)[C@H](Cc1c[nH]c2ccccc12)NC(=O)[C@H](CC(N)=O)NC(=O)[C@@H](NC(=O)[C@H](Cc1ccccc1)NC(=O)[C@H](CCC(=O)O)NC(=O)C(C)(C)NC(=O)[C@H](C)NC(=O)[C@H](C)NC(=O)[C@H](CCC(N)=O)NC(=O)[C@H](CCCCN)NC(=O)[C@H](CC(=O)O)NC(=O)[C@H](CC(C)C)NC(=O)[C@H](Cc1ccc(O)cc1)NC(=O)[C@@H](NC(=O)[C@H](CO)NC(=O)[C@H](Cc1ccc(O)cc1)NC(=O)[C@H](CC(=O)O)NC(=O)[C@H](CO)NC(=O)[C@@H](NC(=O)[C@H](Cc1ccccc1)NC(=O)[C@@H](NC(=O)CNC(=O)[C@H](CCC(=O)O)NC(=O)CSCC(=O)NCCN1CCc2ccccc2C1=O)[C@@H](C)O)[C@@H](C)O)[C@@H](C)CC)C(C)C)C(N)=O)C(=O)O [Compound 13] | 69 |  | 69 |  |  | 25 |  | 25 |  | 1 to 10 | 1 to 10 | > 1000 | 1 to 10 | 10 to 100 |
| CCCCCCCCCCCCCCCC(=O)N[C@@H](CCC(=O)NCCCC[C@H](NC(=O)[C@H](CO)NC(=O)[C@@H]1CCCN1C(=O)[C@@H]1CCCN1C(=O)[C@@H]1CCCN1C(=O)[C@H](C)NC(=O)CNC(=O)[C@H](CO)NC(=O)[C@H](CO)NC(=O)[C@@H]1CCCN1C(=O)CNC(=O)CNC(=O)[C@H](C)NC(=O)[C@H](CC(C)C)NC(=O)[C@H](CC(C)C)NC(=O)[C@H](Cc1c[nH]c2ccccc12)NC(=O)[C@H](CC(N)=O)NC(=O)[C@@H](NC(=O)[C@H](Cc1ccccc1)NC(=O)[C@H](CCC(=O)O)NC(=O)C(C)(C)NC(=O)[C@H](C)NC(=O)[C@H](C)NC(=O)[C@H](CCC(N)=O)NC(=O)[C@H](CCCCN)NC(=O)[C@H](CC(=O)O)NC(=O)[C@H](CC(C)C)NC(=O)[C@H](Cc1ccc(O)cc1)NC(=O)[C@@H](NC(=O)[C@H](CO)NC(=O)[C@H](Cc1ccc(O)cc1)NC(=O)[C@H](CC(=O)O)NC(=O)[C@H](CO)NC(=O)[C@@H](NC(=O)[C@H](Cc1ccccc1)NC(=O)[C@@H](NC(=O)CNC(=O)[C@H](CCC(=O)O)NC(=O)CSCC(=O)NCCN1CC[C@H](OC)C1=O)[C@@H](C)O)[C@@H](C)O)[C@@H](C)CC)C(C)C)C(N)=O)C(=O)O [Compound 14] | 81 |  | 81 |  |  | < 10 |  |  |  | 0.1 to 1 | 0.1 to 1 | > 1000 | 10 to 100 |  |
| CCCCCCCCCCCCCCCC(=O)N[C@@H](CCC(=O)NCCCC[C@H](NC(=O)[C@H](CO)NC(=O)[C@@H]1CCCN1C(=O)[C@@H]1CCCN1C(=O)[C@@H]1CCCN1C(=O)[C@H](C)NC(=O)CNC(=O)[C@H](CO)NC(=O)[C@H](CO)NC(=O)[C@@H]1CCCN1C(=O)CNC(=O)CNC(=O)[C@H](C)NC(=O)[C@H](CC(C)C)NC(=O)[C@H](CC(C)C)NC(=O)[C@H](Cc1c[nH]c2ccccc12)NC(=O)[C@H](CC(N)=O)NC(=O)[C@@H](NC(=O)[C@H](Cc1ccccc1)NC(=O)[C@H](CCC(=O)O)NC(=O)C(C)(C)NC(=O)[C@H](C)NC(=O)[C@H](C)NC(=O)[C@H](CCC(N)=O)NC(=O)[C@H](CCCCN)NC(=O)[C@H](CC(=O)O)NC(=O)[C@H](CC(C)C)NC(=O)[C@H](Cc1ccc(O)cc1)NC(=O)[C@@H](NC(=O)[C@H](CO)NC(=O)[C@H](Cc1ccc(O)cc1)NC(=O)[C@H](CC(=O)O)NC(=O)[C@H](CO)NC(=O)[C@@H](NC(=O)[C@H](Cc1ccccc1)NC(=O)[C@@H](NC(=O)CNC(=O)[C@H](CCC(=O)O)NC(=O)CCCNC(=O)CCN1CCCCC1=O)[C@@H](C)O)[C@@H](C)O)[C@@H](C)CC)C(C)C)C(N)=O)C(=O)O [Compound 15] | 93 | 0.1 to 1 | 93 | 0.1 to 1 | > 1000 | 20 | 1 to 10 | 20 | 10 to 100 |  |  |  |  |  |
| CCCCCCCCCCCCCCCC(=O)N[C@@H](CCC(=O)NCCCC[C@H](NC(=O)[C@H](CO)NC(=O)[C@@H]1CCCN1C(=O)[C@@H]1CCCN1C(=O)[C@@H]1CCCN1C(=O)[C@H](C)NC(=O)CNC(=O)[C@H](CO)NC(=O)[C@H](CO)NC(=O)[C@@H]1CCCN1C(=O)CNC(=O)CNC(=O)[C@H](C)NC(=O)[C@H](CC(C)C)NC(=O)[C@H](CC(C)C)NC(=O)[C@H](Cc1c[nH]c2ccccc12)NC(=O)[C@H](CC(N)=O)NC(=O)[C@@H](NC(=O)[C@H](Cc1ccccc1)NC(=O)[C@H](CCC(=O)O)NC(=O)C(C)(C)NC(=O)[C@H](C)NC(=O)[C@H](C)NC(=O)[C@H](CCC(N)=O)NC(=O)[C@H](CCCCN)NC(=O)[C@H](CC(=O)O)NC(=O)[C@H](CC(C)C)NC(=O)[C@H](Cc1ccc(O)cc1)NC(=O)[C@@H](NC(=O)[C@H](CO)NC(=O)[C@H](Cc1ccc(O)cc1)NC(=O)[C@H](CC(=O)O)NC(=O)[C@H](CO)NC(=O)[C@@H](NC(=O)[C@H](Cc1ccccc1)NC(=O)[C@@H](NC(=O)CNC(=O)[C@H](CCC(=O)O)NC(=O)CSCC(=O)N(C)CCN1CCCCC1=O)[C@@H](C)O)[C@@H](C)O)[C@@H](C)CC)C(C)C)C(N)=O)C(=O)O [Compound 17] | 92 |  | 92 |  |  | 55 |  | 55 |  | 0.1 to 1 | 0.1 to 1 | > 1000 | 1 to 10 | 1 to 10 |
